Columns and labels:
[1] = Stability in aqueous media; type: physicochemical; details: physiological pH range
Candida albicans = test: Microdilution broth assay, minimum fungicidal concentration; type: cell-based
Excerpt: (§1) The usefulness of the compounds as antifungal agents particularly, for the treatment of mycotic infections may be illustrated with minimum fungicidal concentration (MFC) results with Compound IA in tests against Candida albicans, Candida tropicalis and Candida parapsilosis.
(§2) The activity may be seen in a microdilution broth assay employing Yeast Nitrogen Base (Difco) with 10% dextrose (YNBD) as the medium. In carrying out the assay, Compound Ia was solubilized in 10 percent dimethyl sulfoxide (DMSO) and diluted to 2560 μg/ml. The compounds were then diluted to 256 μg/ml in YNBD. 0.15 ml of the suspension was dispensed to the top row of a 96-well plate (each well containing 0.15 ml of YNDB) resulting in a drug concentration of 128 μg/ml. Two-fold dilutions were then made from the top row to obtain final drug concentrations ranging from 128 to 0.06 μg/ml.
(§3) The yeast cultures, maintained on Sabouraud dextrose agar were transferred to YM broth (Difco) and incubated overnight at 35° C. with shaking (250 rpm). After incubation, each culture was diluted in sterile water to yield a final concentration of 1-5×10^6 colony forming units (CFU)/ml.
(§4) 96-well microplates were inoculated using a MIC-2000 (Dynatech) which delivers […] per well yielding a final inoculum per well of 1.5-7.5×10^3 cells. The microplates were incubated at 35° C. for 24 hours. The minimum inhibitory concentrations (MICS) were recorded as the lowest concentrations of drug showing no visible growth.
(§5) After recording the MIC, the plates were shaken to resuspend the cells. Thereafter, […] samples from the wells in the 96-well microplate were transferred to a single well tray containing Sabouraud dextrose agar. The inoculated trays were incubated 24 hours at 28° C. and then read. The MFC is defined as the lowest concentration of drug showing no growth or less than 4 colonies per spot.

Candida parapsilosis = test: as above; type: cell-based
Excerpt: as §1, §2, §3, §4, §5

Candida tropicalis = test: as above; type: cell-based; details: Candida tropicalis MY 1012
Experimental: The usefulness of the compounds as antifungal agents particularly, for the treatment of mycotic infections may be illustrated with minimum fungicidal concentration (MFC) results with Compound IA in tests against Candida albicans, Candida tropicalis and Candida parapsilosis. The activity may be seen in a microdilution broth assay employing Yeast Nitrogen Base (Difco) with 10% dextrose (YNBD) as the medium. […] The compounds were then diluted to 256 μg/ml in YNBD. 0.15 ml of the suspension was dispensed to the top row of a 96-well plate (each well containing 0.15 ml of YNDB) resulting in a drug concentration of 128 μg/ml. Two-fold dilutions were then made from the top row to obtain final drug concentrations ranging from 128 to 0.06 μg/ml. The yeast cultures, maintained on Sabouraud dextrose agar were transferred to YM broth (Difco) and incubated overnight at 35° C. with shaking (250 rpm). After incubation, each culture was diluted in sterile water to yield a final concentration of 1-5×10^6 colony forming units (CFU)/ml. 96-well microplates were inoculated using a MIC-2000 (Dynatech) which delivers […] per well yielding a final inoculum per well of 1.5-7.5×10^3 cells. […] The minimum inhibitory concentrations (MICS) were recorded as the lowest concentrations of drug showing no visible growth. […] The inoculated trays were incubated 24 hours at 28° C. and then read. […]

Substance	stability in aqueous medium [1]	Minimum Fungicidal Concentration (Candida albicans; Candida albicans MY 1028) [µg/mL]	Minimum Fungicidal Concentration (Candida albicans; Candida albicans MY 1055) [µg/mL]	Minimum Fungicidal Concentration (Candida albicans; Candida albicans MY 1208) [µg/mL]	Minimum Fungicidal Concentration (Candida albicans; Candida albicans MY 1585) [µg/mL]	Minimum Fungicidal Concentration (Candida albicans; Candida albicans MY 1750) [µg/mL]	Minimum Fungicidal Concentration (Candida albicans; Candida albicans MY 1783) [µg/mL]	Minimum Fungicidal Concentration (Candida parapsilosis; Candida parapsilosis MY 1008) [µg/mL]	Minimum Fungicidal Concentration (Candida parapsilosis; Candida parapsilosis MY 1010) [µg/mL]	Minimum Fungicidal Concentration (Candida tropicalis) [µg/mL]
1-[4-hydroxy-N^2 -(10,12-dimethyl-1-oxo-tetradecyl)ornithine]-5-[3-hydroxy-glutamine]echino candin B [Compound Ib]	exhibit the stability in aqueous medium desired	–	–	–	–	–	–	–	–	–
1-[4-hydroxy-N^2 -(10,12-dimethyl-1-oxo-tetradecyl)ornithine]-4-[3-hydroxy-homotyrosine]-5- [3-hydroxy-glutamine]echinocandin B [Compound Ia]	exhibit the stability in aqueous medium desired	0.5	1	2	0.25	0.25	0.5	8	4	1

Source: patent US5310726A, “Lipopeptide compounds” (Merck & Co., Inc., priority 1990, dated 1994)
